From patent publication US7964556B1, “Antimicrobial peptides and use thereof” (Toagosei Co., Ltd, priority 2004, dated 2011) come the findings set out here.

Common to all, as to assay type: cell-based
The test system of one series is sheep's erythrocytes. How it is done: A test on the hemolytic activity of 2 kinds of synthesized peptides (sample 9 and sample 10) in example 1 was performed and served as indicator of the effects of these peptides on animal cell (erythrocyte). The hemolytic activity test in the present example was performed as follows. Specifically, sample peptides were dissolved in PBS (pH7.4), and thereafter 10 stages of twice diluted strains (sample solutions) with peptide concentration of 400, 200, 100, 50, 25, 12.5, 6.25, 3.13, 1.56 and 0.78 μM were prepared. Here, PBS was used as a control of 0% hemolysis, and PBS containing 0.1% of triton X-100 was used as a control of 100% hemolysis. Erythrocyte of fiber-free sheep's blood was then added to these sample solutions such that the volume ratio (v/v) was 1% of these sample solutions. After adding the above-described red blood cells, the sample solutions were incubated for 1 hour at 37° C., and thereafter the hemolysis was ceased with cold water. Next, centrifugal separation at 3000 rpm was performed for […] at 4° C.
After centrifugal separation, each supernatant was fed to the 96-well microplate, and absorbency under 540 nm wavelength was determined. The hemolytic rate (%) was then calculated by the following formula based on the results determined: {(Aexp−A0)/A100}×100. […]

The test system of the next series is Staphylococcus aureus. The note with it: for Antimicrobial Activities (MIC) S. aureus: 24 h; for antimicrobial activities against gram-positive bacteria (S. aureus), in words: summary of Table 2. The protocol: (§1) Regarding the antimicrobial peptide in samples 1 to 14 and the comparative sample 1, the antimicrobial activities (minimum inhibitory concentration: MIC) with respect to gram-negative bacteria (Escherichia coli) and gram-positive bacteria (Staphylococcus aureus) were determined, as described below, by a liquid medium dilution technique using a 96-well microplate. First, a drug (synthesized peptide) solution having a concentration of 40 times of the highest test concentration was prepared using sterile distilled water, and thereafter liquid-bouillon mediums (“NUTRIENT BROTH Dehydrated” manufactured by DIFCO) having peptide concentrations of 200, 100, 50, 25, 12.5, 6.25, 3.13, 1.56 and 0.78 μM were produced respectively. The produced liquid-bouillon mediums including the peptide of each concentration were then fed to the 96-well microplate at 100 μL a time.
(§2) At the same time, test bacteria cultured for 18 hours at 37° C. on an agar plate (“Muller Hinton Agar” manufactured by DIFCO) were gathered by scratching with a loop, and then suspended in a sterilized physiological saline. Bacterial suspension 5 μL prepared at an equivalent of 2×10^7 cells/mL was respectively inoculated (number of bacteria to be tested: approximately 1×10^6 cells/mL) onto the above-described liquid-bouillon mediums including the peptide of each concentration and fed to each well of the above-described microplate. After inoculation, the microplate was then incubated in an incubator at 37° C., and the presence of bacteria was evaluated based on the turbidity 24 hours later. The minimum drug concentration (peptide concentration), in which an increased in turbidity caused by bacteria was not detected at the time of measurement, was defined as MIC (minimum inhibitory concentration) (unit: μM) in the present embodiment.

The next series deals with Escherichia coli. The conditions noted are these: 24 h. The protocol: as §1, §2
Another series concerns S. aureus. How it is done:
Next, the antimicrobial activities (MIC) against gram-positive bacteria (S. aureus) in the presence of serum and high concentration of cation were tested with the same method as Example 2. However, only the above-described sample 9 was used as the test peptide. Specifically, a drug (synthesized peptide of sample 9) solution having a concentration of 40 times of the highest test concentration was prepared using sterile distilled water. Thereafter, MHB mediums (“Mueller Hinton Broth” manufactured by DIFCO) including high concentration of cation with peptide concentrations of 50, 25, 12.5, 6.25, 3.13, 1.56 and 0.78 μM were produced respectively. The cation included was prepared as follows: dissolving 3.68 g of CaCl2.2H2O in 100 mL of purified water (10 mg.Ca^2+/mL), and thereafter adding 500 μL thereof into 100 mL of Mueller Hinton Broth; and dissolving 8.36 g of MgCl2.6H2O in 100 mL of purified water (10 mg.Mg^2+/mL), and thereafter adding 250 μL thereof into 100 mL of Mueller Hinton Broth.
Mediums (hereinafter “MHB serum mediums including high concentration of cation”) were further prepared by adding horse serum (mechanically sterilized Nippon Biotest Laboratories inc. product), which made up of 10% volume ratio of the entire medium, into the MHB mediums including high concentration of cation. The MHB serum mediums including high concentration of cation had peptide concentrations of 50, 25, 12.5, 6.25, 3.13, 1.56 and 0.78 μM.
Next, the above-described MHB mediums including high concentration of cation and having peptide of each concentration, and the above-described MHB serum mediums including high concentration of cation and having peptide of each concentration were fed to the 96-well microplate at 100 μL a time, and the MIC were determined using the same method as example 2. As comparison, commercially available MHB mediums having peptide concentration of 50, 25, 12.5, 6.25, 3.13, 1.56 and 0.78 μM were used.

Where a SMILES comes first, the peptide text is derived from it.

On to `CC(C)[C@H](NC(=O)[C@H](C)NC(=O)[C@@H](NC(=O)[C@H](CCCCN)NC(=O)[C@H](CCCCN)NC(=O)[C@@H](NC(=O)[C@H](CCCCN)NC(=O)[C@H](CCCNC(=N)N)NC(=O)[C@H](CCCCN)NC(=O)[C@H](CCCCN)NC(=O)[C@H](CCCCN)NC(=O)[C@@H](N)CCCNC(=N)N)C(C)C)C(C)C)C(=O)N[C@H](C(=O)N[C@@H](CCCNC(=N)N)C(=O)N[C@H](C(N)=O)[C@@H](C)O)C(C)C` [Sample 10, RKKKRKVKKVAVVRT] (H-RKKKRKVKKVAVVRT-NH2), for which the “hemolytic activities, in words” value in the series with sheep's erythrocytes is “significantly low”. For the same compound, in the series with Staphylococcus aureus, the “Antimicrobial Activities (MIC) S. aureus” value stood at 3.13 µM and the “antimicrobial activities against gram-positive bacteria (S. aureus), in words” value was “particularly high antimicrobial activities”. Besides, the “Antimicrobial Activities (MIC) E. coli” value with Escherichia coli was found to be 12.5 µM.
As for `CC[C@H](C)[C@H](NC(=O)[C@H](CCC(N)=O)NC(=O)[C@@H](NC(=O)[C@H](CCCCN)NC(=O)[C@@H](NC(=O)[C@H](CCCCN)NC(=O)[C@H](CCCNC(=N)N)NC(=O)[C@H](CCCCN)NC(=O)[C@H](CCCCN)NC(=O)[C@H](CCCCN)NC(=O)[C@@H](N)CCCNC(=N)N)C(C)C)C(C)C)C(=O)N[C@H](C(=O)N[C@@H](CC(N)=O)C(=O)N[C@@H](CCCCN)C(=O)N[C@@H](CCCCN)C(N)=O)[C@@H](C)CC` [Sample 9, RKKKRKVKVQIINKK] (H-RKKKRKVKVQIINKK-NH2), the “hemolytic activities, in words” value with sheep's erythrocytes was “significantly low”. In the series with Staphylococcus aureus, the “Antimicrobial Activities (MIC) S. aureus” value came to 0.78 µM and the “antimicrobial activities against gram-positive bacteria (S. aureus), in words” value is “particularly high antimicrobial activities”. For the same compound, the “Antimicrobial Activities (MIC) E. coli” value in the series with Escherichia coli was 3.13 µM. Besides, in the series on S. aureus, the “Antimicrobial Activities (MIC) against S. aureus, MHB” value was 3.13 µM; the “Antimicrobial Activities (MIC) against S. aureus, MHB + Cation” value turned out to be 3.13 µM; the “Antimicrobial Activities (MIC) against S. aureus, MHB + Cation + Horse Serum” value was found to be 3.13 µM.
